Measured values reported in patent publication US20250213627A1, “RECOMBINANT MICROORGANISM-BASED METHODS AND COMPOSITIONS FOR TREATMENT OF DISEASE” (Baylor College of Medicine, priority 2021, published 2025).
Ends that are not written are not given here.

Assays:
[1] = test system: viral or bacterial infections in rats; details: rat, in vivo; cited from earlier work
active plaque psoriasis = details: doses as low at 30 μg/patient 3 times a week subcutaneously; cited from earlier work
[2] = test system: rat models of RA and multiple sclerosis; details: in vivo; cited from earlier work
[3] = test system: Kv1.3 versus Kv1.1 and other ion channels; details: cited from earlier work
[4] = test system: rodents, non-human primates, healthy humans, and patients; details: systemic administration; Phase 1A and 1B; cited from earlier work
Kv1.3 = Kv1.3 (Mus musculus, UniProt P16390); details: literature values; cited from earlier work
[5] = test system: CCR7− TEM cells and CCR7+ naïve/TCM cells; assay: [3H]-thymidine incorporation proliferation of T-cell subsets in presence of ShK-186; assay type: cell-based, human
Protocol: FIGS. 2A-2C. […] FIGS. 2A-2B. Naïve/TCM (▪) and TEM (▪) cells were separated based on CCR7 expression and activated in the presence of ShK-186, either immediately after isolation (FIG. 2A) or after an overnight pre-activation to induce the upregulation of either KV1.3 or KCa3.1 (FIG. 2B). FIG. 2C. TEM cells were activated with 10 (◯), 30 (▪), or 90 (▴) μg/ml antigen in the presence of ShK-186. In all aspects, T-cell proliferation was assessed via [3H] thymidine incorporation into the DNA of the dividing cells. Each data point represents mean±SD of triplicates.
The activation of CCR7^− TEM cells induces the upregulation of the Kv1.3 K^+ channel (FIG. 1)^8,9. In contrast, CCR7^+ naïve and central memory T (TCM) cells upregulate a different K^+ channel (KCa3.1) upon activation^8,9,35. The inventors therefore designed selective Kv1.3 blockers and assessed the sensitivity of the different T-cell subsets to Kv1.3 block. […] Without wishing to be bound by theory, this “escape” by naïve/TCM effectors may be due to up-regulation of the calcium-activated KCa3.1 channel that regulates membrane potential and Ca^2+ signaling in naïve/TCM effectors in place of Kv1.38. The significance of this finding is that in some aspects Kv1.3 blockers have an advantage over current immunotherapies because naïve and long-lived TCM cells (the main memory pool) would escape inhibition while TEM cells would be targeted.

KCa1.1 = KCa1.1 (Homo sapiens, UniProt Q12791); details: cited from earlier work
[6] = Detection of functional IbTX in the circulation of rats by patch-clamp; assay type: in vivo, rat; details: enteric-coated capsule
Protocol: CIA is induced in both male and female Lewis rats by their immunization twice at a week interval with porcine collagen II in emulsion with incomplete Freund's adjuvant. Rats are monitored for clinical signs of arthritis and receive an oral bolus of [1×10^7-1×10^9 CFU] LrIbTX or LrIbTX[R34D], or an enteric-coated capsule containing either 0.1 mg/kg body weight synthetic IbTX, IbTX[R34D] or glycerin on the day after the onset of clinical signs. Age- and sex-matched healthy rats are used for comparison. Blood is collected via the saphenous vein or via terminal cardiac puncture 1 hr, 6 hrs, and 24 hrs after gavage. Whole-cell patch-clamp is used to detect and quantify levels of functional IbTX in the serum of the rats.

rats = assay: Side effects of KCa1.1 blockers (urine spots, tremor measurements); assay type: in vivo, rat; details: single injection
Protocol: (§1) FIGS. 12A-12E. Blocking KCa1.1 reduces the severity of an animal model of RA. FIG. 12A. Effects of vehicle (□), paxilline (▪, 20 mg/kg), and iberiotoxin (IbTX, ▪, 0.5 mg/kg) in rats with PIA. Injections were given intraperitoneally (paxilline) or subcutaneously (IbTX), every other day, starting at onset of clinical signs. N=18 rats per group. FIG. 12B. Ex vivo invasiveness of FLS isolated from healthy rats or arthritic rats, treated with vehicle or IbTX. N=5 rats per group. FIG. 12C. Representative images from the joints of arthritic rats, treated with vehicle or IbTX, and stained with Safranin O-fast green (red: cartilage & bone marrow; blue: bone). FIG. 12D. Number of urine spots after rats received a single injection of vehicle, paxilline, or IbTX and were gavaged with 1 ml drinking water. N=6 rats per group. FIG. 12E. Representative tremor measurements in rats 10 min after the injection of vehicle, paxilline, or IbTX. *p<0.05, **p<0.01, ***p<0.001.
(§2) The inventors have tested the efficacy and safety of two KCa1.1 blockers, the small molecule paxilline that blocks KCa1.1 regardless of β subunit and the peptide IbTX that blocks only some αβ combinations of KCa1.1.

rat model of RA (PIA) = assay: Pristane-induced arthritis (PIA) model treated with KCa1.1 blockers; assay type: in vivo; details: paxilline 20 mg/kg i.p., IbTX 0.5 mg/kg s.c., every other day from onset
Protocol: as §1, §2

CIA = details: injected; cited from earlier work
RA-FLS = RA-FLS proliferation and invasion assays; assay type: cell-based, human; details: supernatants or synthetic peptide
Protocol: For proliferation assays, RA-FLS are plated into 96 well plates and incubated for 48 hrs in the presence of media supplemented with either LrIbTX or LrIbTX[R34D] supernatants, known concentrations of synthetic IbTX, or the vehicle for IbTX. [3H] thymidine is added during the last 16-18 hrs of culture and the amount of [3H] thymidine incorporated into the DNA collected with a scintillation counter as a measure of cell division.
For invasion assays, RA-FLS are seeded in the upper compartment of a Matrigel-coated transwell and induced to cross into the lower compartment by the addition of FBS. The upper compartment is supplemented with either LrIbTX or LrIbTX[R34D] supernatants, synthetic IbTX, or the vehicle. The number of cells crossing into the lower compartment are counted as a measure of invasiveness.

rat CIA model of RA = assay: CIA model treated with LrIbTX; assay type: in vivo; details: daily treatment for 3 weeks from onset
Description: CIA is induced in male and female Lewis rats as described above and the rats monitored for clinical signs of arthritis. Treatment begins at onset of clinical signs, at which time rats are randomly assigned to the different treatment groups: oral LrIbTX, oral LrIbTX[R34D], injected synthetic IbTX, and injected vehicle. Treatment continues daily for 3 weeks. Rats are scored daily for CIA severity with a score of 2 given for each lightly swollen ankle or wrist, 5 for each severely swollen ankle and wrist, and 1 for each red and swollen small joint for a total of 15 per paw. At the end of the 3 weeks of treatment and scoring, rats are euthanized for collection of blood and hind limbs. Blood is used to prepare serum to detect circulating levels of IbTX. For each rat, the left hind limb is used for micro-CT to detect bone damage followed by sectioning for histology to detect cartilage damage (safranin O/Fast Green stain) and synovium inflammation (hematoxylin and eosin stain). The right hind limb is used for the isolation of FLS to assess their proliferation and invasiveness ex vivo, using the methods described above, without further treatment.

[7] = Immunohistochemistry detection of HA tag in spleen after injection; assay type: in vivo, rat; details: subcutaneous injection, spleens collected 3 hours later
Protocol: FIGS. 10A-10B. LrS235-HA secretes functionally active HA-tagged ShK-235. FIG. 10A. Representative whole-cell Kv1.3 currents measured by patch-clamp in cells stably expressing Kv1.3 before (control, top trace) and after application of ShK-235-HA (bottom trace). FIG. 10B. Healthy Lewis rats received a subcutaneous injection of either ShK-235-HA (left) or of untagged ShK-235 (right). Their spleens were collected 3 hours later and stained to detect the HA tag in brown (arrows). Scale bar: 50 μm.
Two complementary approaches to directly detect ShK-235 in joints and tissues and assess its action on T lymphocyte proliferation are used. L. reuteri LJ01 has been engineered to express HA-tagged ShK-235 (LrS235-HA), because the low immunogenicity of the peptide has made it impossible to raise antibodies against ShK-235. […] ShK-235-HA was injected to healthy rats and their spleens collected. […] HA-tagged ShK-235 is used to detect and localize ShK-235 in the joints, intestines, and secondary lymphoid organs of rats with CIA.

[8] = cells activated overnight, rested and re-stimulated

Chain of KCa1.1 (Q12791 whole entry, species assumed): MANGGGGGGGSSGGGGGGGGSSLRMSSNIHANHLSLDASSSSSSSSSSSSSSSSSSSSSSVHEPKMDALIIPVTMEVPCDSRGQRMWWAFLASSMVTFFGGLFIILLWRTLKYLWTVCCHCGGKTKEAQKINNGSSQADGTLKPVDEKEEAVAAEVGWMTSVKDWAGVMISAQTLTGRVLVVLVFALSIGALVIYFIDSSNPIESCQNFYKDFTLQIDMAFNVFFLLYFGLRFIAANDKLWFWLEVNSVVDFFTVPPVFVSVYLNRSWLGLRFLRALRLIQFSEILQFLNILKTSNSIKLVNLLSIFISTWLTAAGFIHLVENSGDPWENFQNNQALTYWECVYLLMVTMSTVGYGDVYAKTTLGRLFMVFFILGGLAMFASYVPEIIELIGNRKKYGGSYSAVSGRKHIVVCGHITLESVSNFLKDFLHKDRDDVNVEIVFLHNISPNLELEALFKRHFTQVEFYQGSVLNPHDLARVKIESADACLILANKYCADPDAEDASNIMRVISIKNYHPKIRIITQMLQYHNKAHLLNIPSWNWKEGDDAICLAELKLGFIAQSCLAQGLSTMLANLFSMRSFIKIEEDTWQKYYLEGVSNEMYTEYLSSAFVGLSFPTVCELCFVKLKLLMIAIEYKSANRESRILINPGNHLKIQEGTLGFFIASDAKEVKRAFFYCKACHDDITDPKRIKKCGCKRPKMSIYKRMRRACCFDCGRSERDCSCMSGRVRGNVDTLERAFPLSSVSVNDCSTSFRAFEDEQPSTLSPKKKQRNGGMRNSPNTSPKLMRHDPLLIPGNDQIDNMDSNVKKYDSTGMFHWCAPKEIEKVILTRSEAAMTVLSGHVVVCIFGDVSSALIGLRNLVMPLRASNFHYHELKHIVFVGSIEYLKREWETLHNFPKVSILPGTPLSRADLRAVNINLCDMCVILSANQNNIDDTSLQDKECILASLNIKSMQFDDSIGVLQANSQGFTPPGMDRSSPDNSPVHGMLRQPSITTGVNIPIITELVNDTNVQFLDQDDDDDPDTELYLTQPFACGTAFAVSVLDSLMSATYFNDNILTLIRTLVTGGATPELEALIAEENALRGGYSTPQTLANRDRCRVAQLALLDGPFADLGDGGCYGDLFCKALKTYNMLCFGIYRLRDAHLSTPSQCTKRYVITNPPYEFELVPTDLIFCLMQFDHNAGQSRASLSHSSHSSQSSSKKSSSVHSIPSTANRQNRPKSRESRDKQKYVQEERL
Chain of Kv1.3 (P16390 whole entry): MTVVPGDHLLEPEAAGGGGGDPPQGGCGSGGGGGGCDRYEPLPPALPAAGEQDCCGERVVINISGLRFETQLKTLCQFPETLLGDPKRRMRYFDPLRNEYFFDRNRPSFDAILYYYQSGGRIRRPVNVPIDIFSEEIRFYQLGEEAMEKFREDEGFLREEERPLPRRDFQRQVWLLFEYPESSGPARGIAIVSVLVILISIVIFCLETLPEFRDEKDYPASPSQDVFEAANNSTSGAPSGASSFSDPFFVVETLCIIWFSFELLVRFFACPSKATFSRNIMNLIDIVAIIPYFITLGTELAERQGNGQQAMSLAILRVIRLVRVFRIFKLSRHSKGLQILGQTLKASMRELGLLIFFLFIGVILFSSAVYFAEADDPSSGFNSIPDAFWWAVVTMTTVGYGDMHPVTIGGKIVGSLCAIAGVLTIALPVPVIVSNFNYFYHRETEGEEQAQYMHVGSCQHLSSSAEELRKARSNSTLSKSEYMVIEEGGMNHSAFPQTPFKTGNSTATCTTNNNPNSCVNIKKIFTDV

ShK derivative, pTyr-AEEA-RSCIDTIPKSRCTAFQCKHSMKYRLSFCRKTCGTC, amidated C-terminus (SEQ ID NO:11) [ShK-186]
Effect on clearance of infections [1]: did not prevent the clearance | Efficacy (active plaque psoriasis): showed efficacy | Tolerability (active plaque psoriasis): well tolerated | Efficacy [2]: demonstrated efficacy | Selectivity for Kv1.3 over all other ion channels [3]: ≥ 700 fold | Selectivity for Kv1.3 versus the closely-related Kv1.1 channel [3]: 100 fold | Selectivity for Kv1.3 over other channels ([3]; comparator value): 100 fold | Safety profile [4]: excellent safety profile | IC50 (Kv1.3): 0.07 nM | Sensitivity of TEM cell proliferation to the Kv1.3 blocker [5, 8]: exquisitely sensitive | Sensitivity of naïve/TCM cell proliferation to the Kv1.3 blocker [5, 8]: resistant | Fold more effective in suppressing [3H]-thymidine incorporation by TEM cells compared with naïve/TCM cells ([5]; cells from patients with type 1 diabetes or RA, activated immediately after isolation): 10 fold

iberiotoxin (QFTDVDCSVSKECWSVCKDLFGVDRGKCMGKKCRCYQ; not fully specified (residue 1, bridges); cysteine pairing not given here; UniProt P24663 1-37, looked up) [IbTX]
IC50 (KCa1.1): 2 nM | Detection of IbTX in the circulation [6]: transiently detected | Side effects (incontinence, tremors) (rats): No such side effects | Reduction of disease severity (rat model of RA (PIA)): effective in reducing disease severity | Efficacy in CIA (CIA): showed efficacy | Inhibition of RA-FLS proliferation and invasiveness (RA-FLS): inhibit | CIA disease severity (rat CIA model of RA): milder disease

sea anemone Stichodactyla helianthus peptide RSCIDTIPKSRCTAFQCKHSMKYRLSFCRKTCGTC (SEQ ID NO:10) [ShK]
IC50 (Kv1.3): 0.01 nM

ShK-235-HA: HA-tagged ShK-235 (RSCIDTIPKSRCTAFKCKHSIKYRLSFCRKTCGTCA; ends and bridges not checked; also: HA tag (position not given here))
Detection in spleen sections [7]: detect HA-ShK-235 in spleen sections

CC(C)(O)[C@H]1O[C@H]2CC[C@@]3(C)[C@@](O)(CC[C@H]4Cc5c([nH]c6ccccc56)[C@@]43C)C2=CC1=O [paxilline]
Side effects (incontinence, tremors) (rats): induces incontinence and tremors

IbTX[R34D] (QFTDVDCSVSKECWSVCKDLFGVDRGKCMGKKCDCYQ; ends and bridges not checked; cysteine pairing not given here; UniProt P24663 1-37, looked up, variant R34D)
Block of KCa1.1 channels (KCa1.1; mutant IbTX): does not block KCa1.1 channels
